Data published in PubChem BioAssay (NCI).
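Here, GI50 denotes the concentration required for 50% inhibition of growth. TGI denotes the concentration required for complete inhibition of growth.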

Legend:
Experiment in all cases: NCI tumour cell line growth inhibition, 384-well format
[1] = tested on: HL-60(TB) leukemia
[2] = tested on: U251 glioblastoma
[3] = tested on: TK-10 renal
[4] = tested on: HT29 colon
[5] = tested on: MDA-MB-231 breast
[6] = tested on: PC-3 prostate
[7] = tested on: SR leukemia
[8] = tested on: RPMI-8226 leukemia
[9] = tested on: NCI-H460 NSCLC
[10] = tested on: SK-MEL-5 melanoma
[11] = tested on: MCF7 breast
[12] = tested on: OVCAR-3 ovarian
[13] = tested on: NCI-H522 lung
[14] = tested on: EKVX NSCLC
[15] = tested on: MALME-3M melanoma
[16] = tested on: SF-295 CNS
[17] = tested on: UO-31 renal
[18] = tested on: BT-549 breast
[19] = tested on: NCI/ADR-RES ovarian
[20] = tested on: SK-OV-3 ovarian
[21] = tested on: SF-268 CNS
[22] = tested on: NCI-H322M lung
[23] = tested on: MDA-MB-468 breast
[24] = tested on: KM12 colon
[25] = tested on: CCRF-CEM leukemia
[26] = tested on: HS 578T breast
[27] = tested on: SW-620 colon
[28] = tested on: OVCAR-4 ovarian
[29] = tested on: SN12C renal
[30] = tested on: LOX IMVI melanoma
[31] = tested on: MOLT-4 leukemia
[32] = tested on: IGROV1 ovarian
[33] = tested on: HCC-2998 colon
[34] = tested on: A549 NSCLC
[35] = tested on: SNB-75 CNS
[36] = tested on: HOP-62 NSCLC
[37] = tested on: HCT-116 colon
[38] = tested on: NCI-H226 lung
[39] = tested on: HOP-92 NSCLC
[40] = tested on: RXF 393 renal
[41] = tested on: M14 melanoma
[42] = tested on: 786-0 renal
[43] = tested on: MDA-MB-435 melanoma
[44] = tested on: SNB-19 CNS
[45] = tested on: T-47D breast
[46] = tested on: HCT-15 colon
[47] = tested on: DU-145 prostate
[48] = tested on: NCI-H23 lung
[49] = tested on: OVCAR-8 ovarian
[50] = tested on: COLO 205 colon
[51] = tested on: SF-539 CNS
[52] = tested on: OVCAR-5 ovarian

`COc1ccc(-c2cc3c(C)nc(N)nc3n(C3CCC(OCCO)CC3)c2=O)cn1` (centres undefined) gave a GI50 [1] of 17.9 nM, a TGI [1] of 191 nM and a GI50 [2] of 490 nM. The TGI [2] was 1980 nM, the GI50 [3] was 65.8 nM and the TGI [3] was 408 nM. It also gave a GI50 [4] of 228 nM, a TGI [4] of 5150 nM and a GI50 [5] of 229 nM. For the same compound, the TGI [5] was 2370 nM, the GI50 [6] was 41.8 nM and the TGI [6] was 434 nM. For the same compound, the GI50 [7] was 106 nM, the TGI [7] was 304 nM and the GI50 [8] was 28.7 nM. The TGI [8] was 105 nM, the GI50 [9] was 40.9 nM and the TGI [9] was 11600 nM. For the same compound, the GI50 [10] was 88.2 nM, the TGI [10] was 261 nM and the GI50 [11] was 20.7 nM. It also gave a TGI [11] of 12700 nM, a GI50 [12] of 53 nM and a TGI [12] of 318 nM. It also gave a GI50 [13] of 71.6 nM, a TGI [13] of 1200 nM and a GI50 [14] of 62.3 nM. For the same compound, the TGI [14] was 447 nM, the GI50 [15] was 24.7 nM and the TGI [15] was 143 nM. For the same compound, the GI50 [16] was 45.5 nM, the TGI [16] was 257 nM and the GI50 [17] was 56.2 nM. The TGI [17] was 856 nM, the GI50 [18] was 114 nM and the TGI [18] was 630 nM. It also gave a GI50 [19] of 241 nM, a TGI [19] of 2270 nM and a GI50 [20] of 80.5 nM. The TGI [20] was 394 nM, the GI50 [21] was 231 nM and the TGI [21] was 1730 nM. The GI50 [22] was 149 nM, the TGI [22] was 13300 nM and the GI50 [23] was 26.7 nM. The TGI [23] was 146 nM, the GI50 [24] was 318 nM and the TGI [24] was 33200 nM. For the same compound, the GI50 [25] was 59.7 nM, the TGI [25] was 1150 nM and the GI50 [26] was 42.9 nM. For the same compound, the TGI [26] was 235 nM, the GI50 [27] was 315 nM and the TGI [27] was greater than 100000 nM. The GI50 [28] was 90.2 nM, the TGI [28] was 854 nM and the GI50 [29] was 82.3 nM. For the same compound, the TGI [29] was greater than 100000 nM, the GI50 [30] was 222 nM and the TGI [30] was 1150 nM. The GI50 [31] was 31.8 nM, the TGI [31] was 160 nM and the GI50 [32] was 24.1 nM. For the same compound, the TGI [32] was 80.3 nM, the GI50 [33] was 222 nM and the TGI [33] was 1670 nM. For the same compound, the GI50 [34] was 173 nM, the TGI [34] was 1100 nM and the GI50 [35] was 24 nM. The TGI [35] was 113 nM, the GI50 [36] was 178 nM and the TGI [36] was 1500 nM. The GI50 [37] was 260 nM, the TGI [37] was 10500 nM and the GI50 [38] was 191 nM. The TGI [38] was 960 nM, the GI50 [39] was 43.1 nM and the TGI [39] was 302 nM. The GI50 [40] was 37 nM, the TGI [40] was 199 nM and the GI50 [41] was 97.8 nM. The TGI [41] was 4560 nM, the GI50 [42] was 268 nM and the TGI [42] was 1530 nM. The GI50 [43] was 220 nM, the TGI [43] was 1610 nM and the GI50 [44] was 896 nM. For the same compound, the TGI [44] was 2260 nM, the GI50 [45] was 19.9 nM and the TGI [45] was 84.6 nM. For the same compound, the GI50 [46] was 89.8 nM, the TGI [46] was 12800 nM and the GI50 [47] was 188 nM. For the same compound, the TGI [47] was 23800 nM, the GI50 [48] was 132 nM and the TGI [48] was 5990 nM. It also gave a GI50 [49] of 245 nM, a TGI [49] of 6520 nM and a GI50 [50] of 126 nM. The TGI [50] was 1350 nM, the GI50 [51] was 185 nM and the TGI [51] was 1270 nM. It also gave a GI50 [52] of 145 nM and a TGI [52] of 1750 nM.
